For experiment [1], the system named is HCV replicon (BB7 sequence) in Huh-7-Clone A cells. The experiment is described as follows: HCV replicon assay: ELISA of NS5A protein in replicon-containing cells (Inhibition of Viral RNA Replication). The following applies: Hepatitis C virus; HCV replicon assay; ranges of EC50; read-out: Replicon. The experiment is classed as cell-based. In short, it runs like this: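 EC50 taken from an 8-point serially diluted dose curve, with NS5A level as read-out: fixed cells probed with primary monoclonal and HRP-conjugated secondary, TMB developed 30 min, OD 650 nm. Compound exposure 72 h in Huh-7-Clone A replicon cells (BB7 sequence).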
In general terms: Replicon systems follow genome replication, usually without infectious particles.

Another experiment concerns the target T1, HCV NS5B (Hepatitis C virus genotype 1b, UniProt Q9WMX2).
T1 construct: fusion protein, of which the carboxyl terminal 21 amino acids were removed to enhance its solubility; His tag (GSHHHHHH); made in house; host or cells: E. coli
The experiment is described as follows: Inhibition of viral RNA-dependent RNA polymerase (RdRp), in vitro biochemical assay. The following applies: HCV NS5B RdRp, BB7; activity class; read-out: HCV pol-BB7 IC50. Also noted: species or system HCV genotype 1b virus (BB7). In short, it runs like this: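 IC50 values are the concentrations that halve in vitro RNA synthesis by HCV NS5B polymerase. The enzyme was a C-terminally truncated (Δ21), His-tagged genotype 1b (BB7 consensus) protein purified from E. coli.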

A value given as a limit tells only on which side of the number the result lay.

As usually defined, the IC50 is the concentration needed to halve the response being measured.

`CNC(=O)c1c(-c2ccc(F)cc2)oc2cc(N(C)S(C)(=O)=O)c(OCC(=O)c3ccc(OC)cc3)cc12` [Example 355, 2-(4-Fluoro-phenyl)-6-(methanesulfonyl-methyl-amino)-5-[2-(4-methoxy-phenyl)-2-oxo-ethoxy]-benzofuran-3-carboxylic acid methylamide]: the EC50 in experiment [1] is under 1000 nM. On HCV NS5B, the IC50 was at most 500 nM.

In the case of `CNC(=O)c1c(-c2ccc(F)cc2)oc2cc(N(C)S(C)(=O)=O)c(OCc3cccc(C#N)c3)cc12` [Example 356, 5-(3-Cyano-benzyloxy)-2-(4-fluoro-phenyl)-6-(methanesulfonyl-methyl-amino)-benzofuran-3-carboxylic acid methylamide], the EC50 in experiment [1] is under 1000 nM. The concentration for half-maximal inhibition (IC50) on HCV NS5B was at most 500 nM.

For the molecule `CNC(=O)c1c(-c2ccc(F)cc2)oc2cc(N(C)S(C)(=O)=O)c(OCc3ccc(C#N)cc3)cc12` [Example 357, 5-(4-Cyano-benzyloxy)-2-(4-fluoro-phenyl)-6-(methanesulfonyl-methyl-amino)-benzofuran-3-carboxylic acid methylamide], in experiment [1], the EC50 was under 1000 nM. On HCV NS5B, the IC50 was at most 500 nM.

Take `CCOC(=O)c1ccc(NC(=O)COc2cc3c(C(=O)NC)c(-c4ccc(F)cc4)oc3cc2N(C)S(C)(=O)=O)cc1` [Example 359, 4-{2-[2-(4-Fluoro-phenyl)-6-(methanesulfonyl-methyl-amino)-3-methylcarbamoyl-benzofuran-5-yloxy]-acetylamino}-benzoic acid ethyl ester]: in experiment [1], the EC50 is under 10000 nM. Further, on HCV NS5B, the half-inhibitory concentration (IC50) was at most 500 nM.

As for `CNC(=O)c1c(-c2ccc(F)cc2)oc2cc(N(C)S(C)(=O)=O)c(OCC(=O)c3ccc(F)cc3)cc12` [Example 360, 2-(4-Fluoro-phenyl)-5-[2-(4-fluoro-phenyl)-2-oxo-ethoxy]-6-(methanesulfonyl-methyl-amino)-benzofuran-3-carboxylic acid methylamide], in experiment [1], the EC50 was under 1000 nM. The IC50 on HCV NS5B is at most 500 nM.

Turning to `CNC(=O)c1c(-c2ccc(F)cc2)oc2cc(N(Cc3ccccc3)S(C)(=O)=O)c(OC(C)C)cc12` [Example 361, 6-(Benzyl-methanesulfonyl-amino)-2-(4-fluoro-phenyl)-5-isopropoxy-benzofuran-3-carboxylic acid methylamide], the EC50 in experiment [1] was under 1000 nM. The IC50 on HCV NS5B was at most 500 nM.

`CCN(C)c1cc2oc(-c3ccc(F)cc3)c(C(=O)NC)c2c(Cl)c1OC` [Example 362, 4-Chloro-6-(ethyl-methyl-amino)-2-(4-fluoro-phenyl)-5-methoxy-benzofuran-3-carboxylic acid methylamide]: the EC50 in experiment [1] is under 10000 nM. For the same molecule, the IC50 at HCV NS5B was at most 500 nM.

On to `CCNc1cc2oc(-c3ccc(F)cc3)c(C(=O)NC)c2c(Cl)c1OC` [Example 363, 4-Chloro-6-ethylamino-2-(4-fluoro-phenyl)-5-methoxy-benzofuran-3-carboxylic acid mehtylamide], for which the EC50 in experiment [1] was under 1000 nM. In addition, the IC50 on HCV NS5B is at most 500 nM.

Take `CCNc1cc2oc(-c3ccc(F)cc3)c(C(=O)NC)c2cc1O` [Example 364, 6-Ethylamino-2-(4-fluoro-phenyl)-5-hydroxy-benzofuran-3-carboxylic acid methylamide]: the EC50 in experiment [1] is over 30000 nM. Further, the IC50 at HCV NS5B was in the range of 500 to 5000 nM.

Consider `CCNc1cc2oc(-c3ccc(F)cc3)c(C(=O)NC)c2cc1OCCCBr` [Example 365, 5-(3-Bromo-propoxy)-6-ethylamino-2-(4-fluoro-phenyl)-benzofuran-3-carboxylic acid methylamide], for which the EC50 in experiment [1] was under 1000 nM. For the same molecule, the half-inhibitory concentration (IC50) at HCV NS5B is at most 500 nM.

As to `C=CCOc1cc2c(C(=O)NC)c(-c3ccc(F)cc3)oc2cc1NCC` [Example 366, 5-Allyloxy-6-ethylamino-2-(4-fluoro-phenyl)-benzofuran-3-carboxylic acid methylamide], the EC50 in experiment [1] was under 1000 nM. For the same molecule, at HCV NS5B, the 50% inhibitory concentration (IC50) is at most 500 nM.

As for `CCNc1cc2oc(-c3ccc(F)cc3)c(C(=O)NC)c2cc1OCCCOCC` [Example 367, 5-(3-Ethoxy-propoxy)-6-ethylamino-2-(4-fluoro-phenyl)-benzofuran-3-carboxylic acid methylamide], the EC50 in experiment [1] was under 1000 nM. Also, the IC50 at HCV NS5B was at most 500 nM.

For `CNC(=O)c1c(-c2ccc(F)cc2)oc2cc(C3CCCN3C(N)=O)c(OC)cc12` (stereo not shown) [Example 368, 2-[2-(4-Fluoro-phenyl)-5-methoxy-3-methylcarbamoyl-benzofuran-6-yl]-pyrrolidine-1-carboxylic acid amide], the EC50 in experiment [1] was under 1000 nM. Further, at HCV NS5B, the IC50 was at most 500 nM.

Consider `CNC(=O)c1c(-c2ccc(F)cc2)oc2cc(N(C)S(C)(=O)=O)c(OCC(C)=O)cc12` [Example 369, 2-(4-Fluoro-phenyl)-6-(methanesulfonyl-methyl-amino)-5-(2-oxo-propoxy)-benzofuran-3-carboxylic acid methylamide], for which, in experiment [1], the EC50 is under 1000 nM. In addition, the IC50 at HCV NS5B was at most 500 nM.

Take `CNC(=O)c1c(-c2ccc(F)cc2)oc2cc(N(C)S(C)(=O)=O)c(OCC(C)O)cc12` (stereo not shown) [Example 370, 2-(4-Fluoro-phenyl)-5-(2-hydroxy-propoxy)-6-(methanesulfonyl-methyl-amino)-benzofuran-3-carboxylic acid methylamide]: the EC50 in experiment [1] was under 1000 nM. On HCV NS5B, the half-maximal inhibitory concentration (IC50) is at most 500 nM.

On to `CNC(=O)c1c(-c2ccc(F)cc2)oc2cc(N(C)S(C)(=O)=O)c(OCc3nnnn3C)cc12` [Example 371, 2-(4-Fluoro-phenyl)-6-(methanesulfonyl-methyl-amino)-5-(1-methyl-1H-tetrazol-5-ylmethoxy)-benzofuran-3-carboxylic acid methylamide], for which, in experiment [1], the EC50 was under 1000 nM. For the same molecule, the IC50 at HCV NS5B was at most 500 nM.

For the molecule `CNC(=O)c1c(-c2ccc(F)cc2)oc2cc(-c3cc(COC(C)C)on3)c(OC)cc12` [Example 372, 2-(4-Fluoro-phenyl)-6-(5-isopropoxymethyl-isoxazol-3-yl)-5-methoxy-benzofuran-3-carboxylic acid methylamide], in experiment [1], the EC50 was under 1000 nM. For the same molecule, at HCV NS5B, the IC50 is at most 500 nM.

For `CCN(CC)c1nc(COc2cc3c(C(=O)NC)c(-c4ccc(F)cc4)oc3cc2N(C)S(C)(=O)=O)ns1` [Example 373, 5-(5-Diethylamino-[1,2,4]thiadiazol-3-ylmethoxy)-2-(4-fluoro-phenyl)-6-(methanesulfonyl-methyl-amino)-benzofuran-3-carboxylic acid methylamide], the EC50 in experiment [1] was under 1000 nM. The IC50 at HCV NS5B was at most 500 nM.

Take `CNC(=O)c1c(-c2ccc(F)cc2)oc2cc(N(C)S(C)(=O)=O)c(OCc3nsc(NCC4CC4)n3)cc12` [Example 374, 5-[5-(Cyclopropylmethyl-amino)-[1,2,4]thiadiazol-3-ylmethoxy]-2-(4-fluoro-phenyl)-6-(methanesulfonyl-methyl-amino)-benzofuran-3-carboxylic acid methylamide]: the EC50 in experiment [1] is under 1000 nM. On HCV NS5B, the IC50 is at most 500 nM.

Turning to `CNC(=O)c1c(-c2ccc(F)cc2)oc2cc(C(C)(O)CN)c(OC(C)C)cc12` (stereo not shown) [Example 375, 6-(2-Amino-1-hydroxy-1-methyl-ethyl)-2-(4-fluoro-phenyl)-5-isopropoxy-benzofuran-3-carboxylic acid methylamide], the EC50 in experiment [1] was under 30000 nM. The IC50 on HCV NS5B is 500 to 5000 nM.

`CNC(=O)c1c(-c2ccc(F)cc2)oc2cc(C(C)(C)N)c(OC(C)C)cc12` [Example 376, 6-(1-Amino-1-methyl-ethyl)-2-(4-fluoro-phenyl)-5-isopropoxy-benzofuran-3-carboxylic acid methylamide]: the EC50 in experiment [1] was under 1000 nM. The IC50 on HCV NS5B was at most 500 nM.

Consider `CNC(=O)c1c(-c2ccc(F)cc2)oc2cc(C3CCCN3C(=O)NC)c(OC)cc12` (stereo not shown) [Example 377, 2-[2-(4-Fluoro-phenyl)-5-methoxy-3-methylcarbamoyl-benzofuran-6-yl]-pyrrolidine-1-carboxylic acid methylamide], for which the EC50 in experiment [1] is under 10000 nM. Besides, on HCV NS5B, the IC50 is at most 500 nM.

Regarding `CCNC(=O)c1c(-c2ccc(F)cc2)oc2cc(-c3c(C)noc3C)c(OC)cc12` [Example 378, 6-(3,5-Dimethyl-isoxazol-4-yl)-2-(4-fluoro-phenyl)-5-methoxy-benzofuran-3-carboxylic acid ethylamide], in experiment [1], the EC50 was under 1000 nM. Also, the IC50 at HCV NS5B is at most 500 nM.

Consider `COc1cc2c(C(=O)NC(C)C)c(-c3ccc(F)cc3)oc2cc1-c1c(C)noc1C` [Example 379, 6-(3,5-Dimethyl-isoxazol-4-yl)-2-(4-fluoro-phenyl)-5-methoxy-benzofuran-3-carboxylic acid isopropylamide], for which, in experiment [1], the EC50 was over 30000 nM. The half-maximal inhibitory concentration (IC50) at HCV NS5B lay in the range of 500 to 5000 nM.

In the case of `COc1cc2c(C(=O)NC3CC3)c(-c3ccc(F)cc3)oc2cc1-c1c(C)noc1C` [Example 380, 6-(3,5-Dimethyl-isoxazol-4-yl)-2-(4-fluoro-phenyl)-5-methoxy-benzofuran-3-carboxylic acid cyclopropylamide], the EC50 in experiment [1] is under 1000 nM. Besides, at HCV NS5B, the IC50 was at most 500 nM.

As to `CNC(=O)c1c(-c2ccc(F)cc2)oc2cc(C3(C)CNC(=O)O3)c(OC(C)C)cc12` (stereo not shown) [Example 381, 2-(4-Fluoro-phenyl)-5-isopropoxy-6-(5-methyl-2-oxo-oxazolidin-5-yl)-benzofuran-3-carboxylic acid methylamide], in experiment [1], the EC50 was under 1000 nM. In addition, the IC50 at HCV NS5B is at most 500 nM.
